Source: article PMC10541411 (Nature Communications, 2023)

Molecular target: 53BP1^TT WT (Homo sapiens, UniProt Q12888)
Assay: Small angle X-ray scattering (SAXS)
Parameters: residues 1484-1603; made in house; host or cells: E. coli
Experimental: SAXS measurements were performed at 10 °C and different concentrations (0.67, 1.33 and 2 mg/mL) of 53BP1^TT WT, free and in complex with 10-fold molar excess of UNC3474 or UNC1118, in 25 mM sodium phosphate, pH 7.5, 15 mM NaCl, as well as on control samples containing only the small molecule in the same buffer. SAXS data were collected at the Lawrence Berkeley National Laboratory SYBILS beamline 12.3.1 and analyzed using programs from the SAXS data analysis software ATSAS (version 2.4.2)[63],[64] including PRIMUS, GNOM, AUTOPOROD, GASBOR and CRYSOL. PRIMUS (version 3.0) was used for initial data processing. Radii of gyration (Rg) were calculated using the Guinier approximation. Distance distribution functions P(r) and maximum particle dimensions were computed using GNOM. Molecular volumes and weights were estimated using AUTOPOROD. Ab initio reconstructions of molecular envelopes were done using GASBOR 2.3i. CRYSOL was used to back calculate the scattering curves and determine the goodness of fit.
Supplementary Table 1 | SAXS reporting data.
Organism Homo Sapiens Homo Sapiens Homo Sapiens
Source E. coli E. coli E. coli
Solvent composition 25 mM sodium 25 mM sodium 25 mM sodium
phosphate, pH 7.5, 15 phosphate, pH 7.5, 15 phosphate, pH 7.5, 15
SAXS data collection parameters
Source SIBYLS beamline 12.3.1 at the Advanced Light Source […]
Beam geometry (size, sample-to-detector distance) 0.1 x 0.1 mm, 1.5 m
Method for monitoring radiation damage Varied exposure lengths were compared against one another
Exposure time, number of exposures 0.5 s, 1 s, 2 s exposures for each concentration
Sample configuration A 1 mm sample was placed between two mica windows in a
Software employed for SAXS data reduction, analysis and interpretation
SAS data reduction Subtraction using established programs at SIBYLS beamline 12.3.1
Basic analyses and merging of curves. PRIMUS from ATSAS 2.4.2
Shape/bead modeling GASBOR 2.3i

Sequence of 53BP1^TT WT (Q12888 1484-1603): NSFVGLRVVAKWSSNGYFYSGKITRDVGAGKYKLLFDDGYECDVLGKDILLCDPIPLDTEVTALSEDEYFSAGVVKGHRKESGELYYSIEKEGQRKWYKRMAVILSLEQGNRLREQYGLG

In the case of CC(C)c1cccc(C(=O)NCCCNC(C)(C)C)c1 [UNC3474], the “Rg, P(r) analysis, of 53BP1TT complex” value (10-fold molar excess of ligand, free 53BP1TT 18.85 ± 0.069) is reported as 20.18 ± 0.038 Å, the “Rg, Guinier analysis, of 53BP1TT complex” value (10-fold molar excess of ligand, free 53BP1TT 19.1 ± 0.2) is reported as 20.1 ± 0.1 Å and the “dmax, P(r) analysis, of 53BP1TT complex” value (10-fold molar excess of ligand, free 53BP1TT 62.5) is reported as 69.4 Å. For the same compound, the “Porod volume of 53BP1TT complex” value (10-fold molar excess of ligand, free 53BP1TT 21822) was 37692 Å3 and the “changes in SAXS data upon complex formation” value (10-fold molar excess of small molecule, 10 °C) was “agreed well with 53BP1^TT homodimerization”.
